From patent publication US20250035634A1, “A METHOD FOR DETECTING CLUSTERING OF RAS PROTEIN” (Nanyang Technological University, priority 2021, published 2025)

Legend:
KRasG12V = target: T1, KRasG12V (Homo sapiens, UniProt P01116, G12V); assay: nanobar-guided KRasG12V clustering (Enrichment Index) in U2OS cells; format: cell-based; details: for Enrichment Index (EI) of KRasG12V: mean±s.e.m.
T1 construct: through full-length KRasG12V, HRasG12V and the truncated Ras isoforms tK-Ras and tH-Ras; expressed in transfected cells; host or cells: U2OS
Text: Arrays of nanostructures on SiO2 surface of bar shape are fabricated with two curved ends and flat sidewalls using electron beam lithography (EBL). […] To conduct EBL, the chips are spin-coated with an electron-sensitive layer, 300 nm of positive electron-beam resist poly (methyl methacrylate) (PMMA) (MicroChem), followed by a conductive polymer layer of AR-PC 5090.02 (Allresist). Desired patterns are then written on the polymer through exposure to EBL (FEI Helios NanoLab), and developed in isopropanol:methylisobutylketone (IPA:MIBK)=3:1 solution. Subsequently, a 30-nm chromium (Cr) mask is deposited onto the surface via thermal evaporation (UNIVEX 250 Benchtop) and lift-off in acetone. Nanostructures are generated through reactive ion etching with the mixture of CF4 and CHF3 (Oxford Plasmalab 80). After fabrication, scanning electron microscopy (SEM) (FEI Helios NanoLab) imaging can be performed after 10-nm Cr coating to measure the dimensional properties of nanostructures (FIG. 1, top). Before use, the nanostructured-chip is cleaned by Chromium Etchant (Sigma-Aldrich) to remove the remaining metal layer.
To culture the cells onto the nanostructured chip, the chip is first cleaned by air plasma treatment (Harrick Plasma) and sterilized by UV radiation. Additional coating reagents like extracellular matrix (ECM) protein components (e.g., fibronectin or gelatin, Sigma-Aldrich) can be added to promote cell attachment. After coating, the cells are plated and maintained in DMEM (Gibco) supplemented with fetal bovine serum (FBS, Life Technologies) and Penicillin-Streptomycin (Life Technologies) in a standard incubator at 37° C. with 5% CO2.
The Ras proteins can be expressed transiently by transfecting the fluorescent protein-tagged Ras plasmid (e.g., EGFP-KRasG12V, EGFP, enhanced green fluorescent protein) into cells using the Lipofectamine (Life Technologies) protocol or electroporation (e.g., Neon Transfection System, Thermo Fisher). If necessary, the transfection parameters (e.g., the amount of the plasmid, starvation time and expression time) and electroporation parameters (e.g., pulse voltage, pulse width, pulse number) can be optimized to reach the expected transfection efficiency and expression level. FBS can be removed at the expression step from the culture medium to prevent Ras activation.
To evaluate the effect of a Ras inhibitor on disrupting the Ras clusters, a gradient concentration and several treatment durations can be selected to determine the effective window. A control group with no treatment should be conducted at the same time. Before and after treatment of the same batch of cells can also be compared.
Cell imaging is performed with laser scanning confocal microscopy (Zeiss LSM 800 with Airyscan) and a Plan-Apochromat 100×/1.4 oil objective. EGFP is excited at 488 nm and detected at 490-570 nm. RFP is excited at 561 nm and detected at 570-645 nm. Images were taken with a resolution of 512×512 pixels, 16-bit and 124 nm pixel size. A scanning speed of 20 s/image and an averaging mode of 4 times/line can be applied. During imaging, the cells are maintained in live cell imaging solution (Thermo Fisher) at 37° C. in an on-stage incubator. […] The images are conducted with a single snap shot for display of Ras variants and the quantification. For the imaging of co-expressed K-Ras variants and CRaf-RBD, z-stack images can be taken and averaged for display and the intensity profiles. The calculation of Pearson correlation coefficient is also based on single snap shot.
To quantify the nanobar-guided clustering of Ras variants, the fluorescence intensity ratio at the nanobar end to the flat sidewall (i.e. Enrichment Index, EI) is calculated. The background signals of each image are firstly subtracted by the rolling ball algorithm in ImageJ (radius=3 pixels for 250 nm diameter nanobars). Next, the nanobars covered by the cell to be analyzed are identified by a custom-written MATLAB (MathWorks) code. […]

HRasG12V = target: T2, HRasG12V (Homo sapiens, UniProt P01112, G12V); assay: nanobar-guided HRasG12V clustering (Enrichment Index) in U2OS cells; format: cell-based
T2 construct: through full-length KRasG12V, HRasG12V and the truncated Ras isoforms tK-Ras and tH-Ras; expressed in transfected cells; host or cells: U2OS
Text: Arrays of nanostructures on SiO2 surface of bar shape are fabricated with two curved ends and flat sidewalls using electron beam lithography (EBL). […] To conduct EBL, the chips are spin-coated with an electron-sensitive layer, 300 nm of positive electron-beam resist poly (methyl methacrylate) (PMMA) (MicroChem), followed by a conductive polymer layer of AR-PC 5090.02 (Allresist). Desired patterns are then written on the polymer through exposure to EBL (FEI Helios NanoLab), and developed in isopropanol:methylisobutylketone (IPA:MIBK)=3:1 solution. Subsequently, a 30-nm chromium (Cr) mask is deposited onto the surface via thermal evaporation (UNIVEX 250 Benchtop) and lift-off in acetone. […]
Cell imaging is performed with laser scanning confocal microscopy (Zeiss LSM 800 with Airyscan) and a Plan-Apochromat 100×/1.4 oil objective. EGFP is excited at 488 nm and detected at 490-570 nm. RFP is excited at 561 nm and detected at 570-645 nm. […] The images are conducted with a single snap shot for display of Ras variants and the quantification. […]
To quantify the nanobar-guided clustering of Ras variants, the fluorescence intensity ratio at the nanobar end to the flat sidewall (i.e. Enrichment Index, EI) is calculated. […] Next, the nanobars covered by the cell to be analyzed are identified by a custom-written MATLAB (MathWorks) code. […]

K-Ras = target: T3, K-Ras (Homo sapiens, UniProt P01116); details: Hela cells, 4 hrs; read-out: IC50, NanoBit assay measuring K-Ras activation; cited from earlier work
T3 construct: host or cells: HeLa

HCT-116 cells = details: 24 hrs, read-out: IC50, MTT assay growth inhibition; cited from earlier work
ASPC-1 cells = details: 24 hrs, read-out: IC50, MTT assay growth inhibition; cited from earlier work
Calu-1 cells = details: 24 hrs, read-out: IC50, MTT assay growth inhibition; cited from earlier work

Structure (SMILES): COc1ccc([C@@]23Oc4cc(OC)cc(OC)c4[C@]2(O)[C@H](O)[C@H](C(=O)N(C)C)[C@H]3c2ccccc2)cc1 [rocaglamide]
- detection limit: concentration at which effect on KRasG12V clustering is detected (KRasG12V; 1 hr treatment): 25 nM
- IC50 (KRasG12V; KRasG12V, 1 hr, one-phase decay fit of EI, read-out: IC50 of the nanobar assay, effect on K-Ras clustering): 18.4 nM
- effect on bar-end accumulated clustering of KRasG12V (KRasG12V; drug treatment vs DMSO, U2OS cells on nanobars): significant reduction
- Enrichment Index (EI) of KRasG12V (KRasG12V; rocaglamide 25 nM, 1 hr): 1.64±0.018
- detection time: treatment time giving significant reduction of KRasG12V clustering (KRasG12V; rocaglamide 50 nM): 15 min
- Enrichment Index (EI) of KRasG12V (KRasG12V; rocaglamide 50 nM, 15 mins): 1.72±0.032
- Enrichment Index (EI) of KRasG12V (KRasG12V; rocaglamide 50 nM, 1 hr): 1.55±0.021
- Enrichment Index (EI) of KRasG12V (KRasG12V; rocaglamide 50 nM, 4 hrs): 1.64±0.024
- Enrichment Index (EI) of KRasG12V (KRasG12V; rocaglamide 100 nM, 1 hr, U2OS cells): 1.58±0.027
- Enrichment Index (EI) of HRasG12V (HRasG12V; rocaglamide 100 nM, 4 hrs, U2OS cells, mean±s.e.m.): 1.87±0.029
- effect on bar-end accumulated clustering of HRasG12V (HRasG12V; same drug treatment vs DMSO, U2OS cells on nanobars): no obvious changes
- IC50 (K-Ras): 24.8 nM
- IC50 (HCT-116 cells): 9.47 nM
- IC50 (ASPC-1 cells): 10.2 nM
- IC50 (Calu-1 cells): 11.9 nM
